Data from publication PMC5392334, “Discovery and characterization of a novel irreversible EGFR mutants selective and potent kinase inhibitor CHMFL-EGFR-26 with a distinct binding mode” (Oncotarget, 2017).
pEC50, pIC50: −log10 of the molar value.

Columns and labels:
[1] = tested on: BaF3-FL-EGFR-L858R-T790M; assay: Anti-proliferation, BaF3 isogenic cell lines (CellTiter-Glo); format: cell-based; details: Mus musculus, 72 hours, triplet testing
[2] = quoted in discussion for comparison; species, route and reference not given; cited from earlier work
[3] = tested on: H2122 (EGFR wt); assay: Anti-proliferation, NSCLC cell lines (CellTiter-Glo); format: cell-based; details: Homo sapiens, NCI-H2122, 72 hours, triplet testing
Description: (§1) The human cancer cell lines H1975, HCC827, H2122, CHO, CHL and H1355 were purchased from the American Type Culture Collection (ATCC) (Manassas, VA, USA). PC9 cell line was purchased from the Sigma-Aldrich (St. Louis, MO, USA). A549, H3255 were purchased from Cobioer Biosciences CO., LTD (Nanjing, China). […] A549 and H1355 were cultured in F-12K Nutrient Mixture (kaighn's Modification) (Gibco, USA) with 10% FBS and supplemented with 2% L-glutamine and 1% pen/strep. H3255 was cultured in BEGM media (LONZA, USA) with 10% FBS and supplemented with 2% L-glutamine and 1% pen/strep.

[4] = tested on: H1703 (EGFR wt); assay: as above; format: cell-based; details: Homo sapiens, NCI-H1703, 72 hours, triplet testing
Description: as §1

[5] = tested on: HCC827 (EGFR del19); assay: as above; format: cell-based; details: Homo sapiens, 72 hours, triplet testing
Description: as §1

[6] = tested on: A549 (EGFR wt); assay: as above; format: cell-based; details: Homo sapiens, 72 hours, triplet testing
Description: as §1

[7] = tested on: H1355(EGFR wt); assay: as above; format: cell-based; details: Homo sapiens, NCI-H1355, 72 hours, triplet testing
Description: as §1

[8] = tested on: H3255 (EGFRL858R); assay: as above; format: cell-based; details: Homo sapiens, NCI-H3255, 72 hours, triplet testing
Description: as §1

[9] = tested on: PC-9 (EGFR del19); assay: as above; format: cell-based; details: Homo sapiens, 72 hours, triplet testing
Description: as §1

[10] = tested on: BaF3-FL-EGFR-del19-T790M; assay: Anti-proliferation, BaF3 isogenic cell lines (CellTiter-Glo); format: cell-based; details: Mus musculus, 72 hours, triplet testing
[11] = biological target: MNK2 kinase; details: cited from earlier work
[12] = tested on: BaF3-TEL-EGFR-C797S; assay: Anti-proliferation, BaF3 isogenic cell lines (CellTiter-Glo); format: cell-based; details: Mus musculus, 72 hours, triplet testing
[13] = tested on: CHL; assay: Anti-proliferation, normal cells (CellTiter-Glo); details: Cricetulus griseus, 72 h
Description: (§2) Cells were grown in 96-well culture plates (2500-3000/well). For adherent cell lines, compounds of various concentrations were added into the plates after cells were cultured for 12 hours. Cell proliferation was determined after treatment with compounds for 72 hours. Cell viability was measured using the CellTiter–Glo assay (Promega, USA) according to the manufacturer's instructions, and luminescence was measured in a multi-label reader (Envision, PerkinElmer, USA). Data were normalized to control groups (DMSO) and represented by the mean of three independent measurements with standard error <20%. GI50 values were calculated using Prism 5.0 (GraphPad Software, San Diego, CA).

[14] = tested on: BaF3-IGF1R; assay: Anti-proliferative effects, IGF1R transformed isogenic BaF3 cells; format: cell-based; details: Mus musculus, read-out: IC50 (anti-proliferative; GI50)
[15] = tested on: BaF3-FL-EGFR-del19; assay: Anti-proliferation, BaF3 isogenic cell lines (CellTiter-Glo); format: cell-based; details: Mus musculus, 72 hours, triplet testing
[16] = tested on: BaF3-INSR; assay: Anti-proliferative effects, INSR transformed isogenic BaF3 cells; format: cell-based; details: Mus musculus, read-out: IC50 (anti-proliferative; GI50)
[17] = tested on: BaF3-TEL-EGFR-T790M-C797S; assay: Anti-proliferation, BaF3 isogenic cell lines (CellTiter-Glo); format: cell-based; details: Mus musculus, 72 hours, triplet testing
[18] = tested on: BaF3-FL-EGFR-L858R-T790M-C797S; assay: as above; format: cell-based; details: Mus musculus, 72 hours, triplet testing
[19] = tested on: BaF3-TEL-EGFR-L858R-C797S; assay: as above; format: cell-based; details: Mus musculus, 72 hours, triplet testing
[20] = tested on: BaF3-FL-EGFR-del19-T790M-C797S; assay: as above; format: cell-based; details: Mus musculus, 72 hours, triplet testing
[21] = tested on: BaF3-TEL-EGFR; assay: as above; format: cell-based; details: Mus musculus, 72 hours, triplet testing
[22] = tested on: BaF3-TEL-EGFR-L858R; assay: as above; format: cell-based; details: Mus musculus, 72 hours, triplet testing
[23] = tested on: EGFR Y1068 phosphorylation in BaF3-TEL-EGFR cells; assay: EGFR Y1068 auto-phosphorylation in transformed BaF3 cells; details: Mus musculus, BaF3, 4 h, read-out: EC50, phosphorylation of EGFR Y1068
[24] = tested on: BaF3-TEL-EGFR-T790M; assay: Anti-proliferation, BaF3 isogenic cell lines (CellTiter-Glo); format: cell-based; details: Mus musculus, 72 hours, triplet testing
[25] = tested on: CHO; assay: Anti-proliferation, normal cells (CellTiter-Glo); details: Cricetulus griseus, 72 h
Description: as §2

[26] = tested on: Parental BaF3; assay: Anti-proliferation, BaF3 isogenic cell lines (CellTiter-Glo); format: cell-based; details: Mus musculus; Parental BaF3; 72 hours; triplet testing
[27] = tested on: H1975 (EGFRL858R/T790M); assay: Anti-proliferation, NSCLC cell lines (CellTiter-Glo); format: cell-based, human; details: Homo sapiens, NCI-H1975; H1975 (EGFRL858R/T790M); 72 hours; triplet testing
Description: as §1

| SMILES | GI50 [1] [nM] | GI50 [3] [nM] | GI50 [4] [nM] | GI50 [5] [nM] | GI50 [6] [nM] | GI50 [7] [nM] | GI50 [8] [nM] | GI50 [9] [nM] | GI50 [10] [nM] | GI50 [12] [nM] | GI50 [13] [nM] | GI50 [15] [nM] | GI50 [17] [nM] | GI50 [18] [nM] | GI50 [19] [nM] | GI50 [20] [nM] | GI50 [21] [nM] | GI50 [22] [nM] | GI50 [24] [nM] | GI50 [25] [nM] | further results |
| --- | --- | --- | --- | --- | --- | --- | --- | --- | --- | --- | --- | --- | --- | --- | --- | --- | --- | --- | --- | --- | --- |
| C=CC(=O)Nc1cc(Nc2nccc(-c3cn(C)c4ccccc34)n2)c(OC)cc1N(C)CCN(C)C [AZD9291, reference compound] | < 0.3 | 1200 | 3500 | 1 | 3500 | 3000 | 33 | 2 | < 0.3 | 590 | 2900 | 1 | 550 | 310 | 590 | 200 | 300 | < 0.3 | 13 | 4200 | T1/2 [2]: 3.1 h; pIC50 [11]: 7.02; pIC50 [14]: 6.25; pIC50 [16]: 6.30; pEC50 [23]: 7.20; GI50 [26]: 1500 nM; GI50 [27]: 52 nM |
| CCC(=O)N1CCC[C@@H](n2nc(-c3ccc(OCc4cccc(C)n4)c(Cl)c3)c3c(N)ncnc32)C1 [CHMFL-EGFR-26R] | > 10000 | > 10000 | 9400 | > 10000 | > 10000 | > 10000 | > 10000 | > 10000 | 7100 | 6600 | > 10000 | > 10000 | > 10000 | > 10000 | > 10000 | 7300 | > 10000 | > 10000 | > 10000 | > 10000 | GI50 [26]: > 10000 nM; GI50 [27]: > 10000 nM |
